Source: patent US20230009626A1 (ICHNOS SCIENCES S.A., priority 2018, published 2023)
pIC50: −log10 of the molar value. Where a name gives a salt, the structure may show the parent alone.

Target: HPK1 (MAP4K1) (Homo sapiens, UniProt Q92918)
Experiment: FRET Assay for HPK1 (MAP4K1): one step binding assay, displacement of labeled tracer
Conditions: for inhibition at 1 µM: 1 μM compound; for inhibition at 1 µM / inhibition at 10 µM: FRET ratio 665/620, percent of control; for inhibition at 10 µM: 10 μM compound; for pIC50: dose response curve, nonlinear regression
Method in brief: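 Percent inhibition at 1.0 and 10.0 μM and IC50 by nonlinear regression were derived from loss of FRET signal versus control. The signal runs from Eu-anti-GST antibody (4 nM) bound to 10 nM HPK1 kinase to Alexa Fluor 647 Kinase Tracer 222 (20 nM), added after a 15-min on-ice compound pre-incubation. Binding then proceeded 1 h at room temperature in HEPES pH 7.5 buffer with 10 mM MgCl2, 1 mM EGTA, 0.01% Brij-35 and 3% DMSO.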

Sequence of HPK1 (MAP4K1) (Q92918 whole entry): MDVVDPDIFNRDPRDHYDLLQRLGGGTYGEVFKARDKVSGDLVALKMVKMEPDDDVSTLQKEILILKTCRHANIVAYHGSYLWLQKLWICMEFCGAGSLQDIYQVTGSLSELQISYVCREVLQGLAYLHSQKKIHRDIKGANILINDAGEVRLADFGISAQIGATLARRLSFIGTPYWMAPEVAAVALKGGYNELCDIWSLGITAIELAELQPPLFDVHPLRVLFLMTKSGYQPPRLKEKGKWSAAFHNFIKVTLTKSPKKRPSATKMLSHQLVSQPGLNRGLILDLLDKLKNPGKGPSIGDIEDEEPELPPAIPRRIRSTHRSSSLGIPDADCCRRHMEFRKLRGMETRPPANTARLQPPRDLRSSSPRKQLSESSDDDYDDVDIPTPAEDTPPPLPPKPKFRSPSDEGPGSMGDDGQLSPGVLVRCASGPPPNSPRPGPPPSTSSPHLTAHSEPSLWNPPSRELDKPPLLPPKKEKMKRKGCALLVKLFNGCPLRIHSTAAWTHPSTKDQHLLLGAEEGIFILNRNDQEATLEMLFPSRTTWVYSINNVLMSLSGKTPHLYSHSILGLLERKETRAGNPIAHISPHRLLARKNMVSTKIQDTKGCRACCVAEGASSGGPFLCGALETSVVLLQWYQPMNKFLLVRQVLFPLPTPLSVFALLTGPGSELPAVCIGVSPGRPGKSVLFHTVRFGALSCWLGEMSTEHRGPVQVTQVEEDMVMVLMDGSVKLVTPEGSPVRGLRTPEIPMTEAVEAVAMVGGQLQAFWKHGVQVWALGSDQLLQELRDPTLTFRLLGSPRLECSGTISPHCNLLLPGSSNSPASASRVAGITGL

inhibition at 1 µM [%] | inhibition at 10 µM [%] | pIC50 | SMILES
78 | 78.2 | > 7.30 | C/C(Nc1ccc(N2CCOCC2)cc1)=C1/C(=O)Nc2cnc(-c3cnccc3C)cc21 [Example 59, (Z)-5-(4-Methylpyridin-3-yl)-3-(1-((4-morpholinophenyl)amino)ethylidene)-1H-pyrrolo[2,3-c]pyridin-2(3H)-one]
74 | 72.7 | > 7.30 | COCCn1cc(N/C(C)=C2\C(=O)Nc3cnc(-c4cnccc4C)cc32)cn1 [Example 60, (Z)-3-(1-((1-(2-Methoxyethyl)-1H-pyrazol-4-yl)amino)ethylidene)-5-(4-methylpyridin-3-yl)-1H-pyrrolo[2,3-c]pyridin-2(3H)-one]
71.6 | 81.3 | > 7.30 | C/C(Nc1cnn(CC(F)F)c1)=C1/C(=O)Nc2cnc(-c3cnccc3C)cc21 [Example 61, (Z)-3-(1-((1-(2,2-Difluoroethyl)-1H-pyrazol 4-yl)amino)ethylidene)-5-(4-methylpyridin-3-yl)-1H pyrrolo[2,3-c]pyridin-2(3H)-one]
80.3 | 94.7 | > 7.30 | C/C(Nc1cnn(C)c1)=C1/C(=O)Nc2ccc(-c3cnccc3C)nc21 [Example 62, (Z)-3-(1-((1-Methyl-1H-pyrazol-4-yl)amino)ethylidene)-5-(4-methylpyridin-3-yl)-1H-pyrrolo[3,2-b]pyridin-2(3H)-one]
89.8 | 97.1 | > 7.30 | C/C(Nc1ccn(C)n1)=C1/C(=O)Nc2ccc(-c3cnccc3C)nc21 [Example 63, (Z)-3-(1-((1-Methyl-1H-pyrazol-34yl)amino)ethylidene)-5-(4-methylpyridin-3-yl)-1H-pyrrolo[3,2-b]pyridin-2(3H)-one]
83.3 | 91.2 | > 7.30 | C/C(Nc1cn[nH]c1)=C1/C(=O)Nc2cnc(-c3cnccc3C)cc21 [Example 64, (Z)-3-(1-((1H-Pyrazol-4-yl)amino)ethylidene)-5-(4-methylpyridin-3-yl)-1H-pyrrolo[2,3-c]pyridin-2(3H)-one]
79.7 | 75.5 | 7.00 to 7.30 | COc1cccc(F)c1-c1cc2c(cn1)NC(=O)/C2=C(/C)Nc1cnn(C(F)F)c1 [Example 65, (Z)-3-(1-((1-(Difluoromethyl)-1H-pyrazol-4-yl)amino)ethylidene)-5-(2-fluoro-6-methoxyphenyl)-1H-pyrrolo[2,3-c]pyridin-2(3H)-one]
74.1 | 76.2 | > 7.30 | C/C(Nc1cnn(C(F)F)c1)=C1/C(=O)Nc2cnc(-c3cnccc3C)cc21 [Example 66, (Z)-3-(1-((1-(Difluoromethyl)-1H-pyrazol-4-yl)amino)ethylidene)-5-(4-methylpyridin-3-yl)-1H-pyrrolo[2,3-c]pyridin-2(3H)-one]
74 | 71.4 | > 7.30 | C/C(Nc1cnn(CC2CC2)c1)=C1/C(=O)Nc2cnc(-c3cnccc3C)cc21 [Example 67, (Z)-3-(1-((1-(Cyclopropylmethyl)-1H-pyrazol-4-yl)amino)ethylidene)-5-(4-methylpyridin-3-yl)-1H-pyrrolo[2,3-c]pyridin-2(3H)-one]
77.5 | 75.3 | > 7.30 | COc1ccncc1-c1cc2c(cn1)NC(=O)/C2=C(/C)Nc1ccn(C)n1 [Example 68, (Z)-5-(4-Methoxypyridin-3-yl)-3-(1-((1-methyl-1H-pyrazol-3-yl)amino)ethylidene)-1H-pyrrolo[2,3-c]pyridin-2(3H)-one]
67 | 65.5 |  | C/C(Nc1cnn(CC(F)(F)F)c1)=C1/C(=O)Nc2cnc(-c3cnccc3C)cc21 [Example 69, (Z)-5-(4-Methylpyridin-3-yl)-3-(1-((1-(2,2,2-trifluoroethyl)-1H-pyrazol-4-yl)amino)ethylidene)-1H-pyrrolo[2,3-c]pyridin-2(3H)-one]
69.5 | 69.9 |  | CC(=O)N1CCN(c2ccc(N/C(C)=C3\C(=O)Nc4cnc(-c5cnccc5C)cc43)cn2)CC1 [Example 70, (Z)-3-(1-((6-(4-Acetylpiperazin-1-yl)pyridin-3-yl)amino)ethylidene)-5-(4-methylpyridin-3-yl)-1H-pyrrolo[2,3-c]pyridin-2(3H)-one]
71.7 | 72.7 | > 7.30 | COc1cccc(F)c1-c1cc2c(cc1C#N)NC(=O)/C2=C(/C)Nc1cnn(C)c1 [Example 71, (Z)-5-(2-Fluoro-6-methoxyphenyl)-3-(1-((1-methyl-1H-pyrazol-4-yl)amino)ethylidene)-2-oxoindoline-6-carbonitrile]
39.8 | 68.6 |  | COc1cccc(F)c1-c1cc2c(cn1)NC(=O)/C2=C(/C)NC1CCNCC1 [Example 72, (Z)-5-(2-Fluoro-6-methoxyphenyl)-3-(1-(piperidin-4-ylamino)ethylidene)-1H-pyrrolo[2,3-c]pyridin-2(3H)-one trihydrochloride]
69.6 | 63.9 | > 7.30 | CCn1ccc(N/C(C)=C2\C(=O)Nc3cnc(-c4cnccc4C)cc32)n1 [Example 73, (Z)-3-(1-((1-Ethyl-1H-pyrazol-3-yl)amino)ethylidene)-5-(4-methylpyridin-3-yl)-1H-pyrrolo[2,3-c]pyridin-2(3H)-one]
76.3 |  | > 7.30 | C/C(Nc1ccc(N2CCNCC2)cn1)=C1/C(=O)Nc2cnc(-c3cnccc3C)cc21 [Example 74, (Z)-5-(4-Methylpyridin-3-yl)-3-(1-((5-(piperazin-1-yl)pyridin-2-yl)amino)ethylidene)-1H-pyrrolo[2,3-c]pyridin-2(3H)-one]
71 | 74 | > 7.30 | CNC(=O)c1cc(N/C(C)=C2\C(=O)Nc3cnc(-c4cnccc4C)cc32)nn1C [Example 75, (Z)-N,1-Dimethyl-3-((1-(5-(4-methylpyridin-3-yl)-2-oxo-1H-pyrrolo[2,3-c]pyridin-3(2H)-ylidene)ethyl)amino)-1H-pyrazole-5-carboxamide]
70.3 | 69 | > 7.30 | C/C(Nc1ccn(C2COC2)n1)=C1/C(=O)Nc2cnc(-c3cnccc3C)cc21 [Example 76, (Z)-5-(4-Methylpyridin-3-yl)-3-(1-((1-(oxctan-3-yl)-1H-pyrazol-3-yl)amino)ethylidene)-1H-pyrrolo[2,3-c]pyridin-2(3H)-one]
73 | 80.3 | > 7.30 | C/C(Nc1ccc(N2CCN(C3COC3)CC2)nc1)=C1/C(=O)Nc2cnc(-c3cnccc3C)cc21 [Example 77, (Z)-5-(4-Methylpyridin-3-yl)-3-(1-((6-(4-(oxetan-3-yl)piperazin-1-yl)pyridin-3-yl)amino)ethylidene)-1H-pyrrolo[2,3-c]pyridin-2(3H)-one]
84.2 | 83.1 | > 7.30 | C/C(Nc1cnn(CC(C)(C)O)c1)=C1/C(=O)Nc2cnc(-c3cnccc3C)cc21 [Example 78, (Z)-3-(1-((1-(2-Hydroxy-2-methylpropyl)-1H-pyrazol-4-yl)amino)ethylidene)-5-(4-methylpyridin-3-yl)-1H-pyrrolo[2,3-c]pyridin-2(3H)-one]
75.1 | 78 | > 7.30 | CCS(=O)(=O)n1cc(N/C(C)=C2\C(=O)Nc3cnc(-c4cnccc4C)cc32)cn1 [Example 80, (Z)-3-(1-((1-(Ethylsulfonyl)-1H-pyrazol-4-yl)amino)ethylidene)-5-(4-methylpyridin-3-yl)-1H-pyrrolo[2,3-c]pyridin-2(3H)-one]
73.8 | 82.2 | > 7.30 | C/C(Nc1ccn(C(F)F)n1)=C1/C(=O)Nc2cnc(-c3cnccc3C)cc21 [Example 81, (Z)-3-(1-((1-(Difluoromethyl)-1H-pyrazol-3-yl)amino)ethylidene)-5-(4-methylpyridin-3-yl)-1H-pyrrolo[2,3-c]pyridin-2(3H)-one]
70.6 | 79.9 | > 7.30 | COc1cccc(F)c1-c1cc2c(cn1)NC(=O)/C2=C(/C)Nc1cnn(C(C)(C)C#N)c1 [Example 82, (Z)-2-(4-((1-(5-(2-Fluoro-6-methoxyphenyl)-2-oxo-1H-pyrrolo[2,3-c]pyridin-3(2H)-ylidene)ethyl)amino)-1H-pyrazol-1-yl)-2-methylpropanenitrile]
27.7 | 43.5 |  | C/C(Nc1ccn(C2CCOCC2)n1)=C1/C(=O)Nc2cnc(-c3cnccc3C)cc21 [Example 83, (Z)-5-(4-Methylpyridin-3-yl)-3-(1-((1-(tetrahydro-2H-pyran-4-yl)-1H-pyrazol-3-yl)amino)ethylidene)-1H-pyrrolo[2,3-c]pyridin-2(3H)-one]
75.2 | 70.4 | > 7.30 | C/C(Nc1ccc(OC2CCNCC2)nc1)=C1/C(=O)Nc2cnc(-c3cnccc3C)cc21 [Example 84, (Z)-5-(4-Methylpyridin-3-yl)-3-(1-((6-(piperidin-4-yloxy)pyridin-3-yl)amino)ethylidene)-1H-pyrrolo[2,3-c]pyridin-2(3H)-one]
78.2 |  | > 7.30 | C/C(Nc1cnn(C)c1)=C1/C(=O)Nc2cnc(-c3cncc4c3OCC(=O)N4)cc21 [Example 85, (Z)-8-(3-(1-((1-Methyl-1H-pyrazol-4-yl)amino)ethylidene)-2-oxo-2,3-dihydro-1H-pyrrolo[2,3-c]pyridin-5-yl)-2H-pyrido[4,3-b][1,4]oxazin-3(4H)-one]
